One data set relates to red blood cells. Briefly: Blood lysis experiment on melittin conjugated to microspheres via ketal. It counts as cell-based. How it is done: The microspheres were taken up in H2O (500 μL) and partitioned into five 100 μL samples. Four of the samples were diluted to 1000 μL with sodium phosphate buffer (100 mM) at pH 7.5, 6.0, 5.5, and 5.0. Samples were held at 37° C., spun down, and 150 μL aliquots taken at 30 min, 60 min, 90 min, and 16 hrs. A portion of each sample (100 μL) was diluted with sodium phosphate buffer (400 μL, pH 7.5) and added to red blood cells (100 μL, pH 7.5). Red blood cell lysis was measured after 10 min by measuring the absorbance at 541 nm. A control sample was also measured in which 100% of the red blood cells had been lysed with melittin alone.
The fifth 100 μL sample was further divided into 25 μL samples, three of which were diluted to 250 μL with sodium phosphate buffer (100 mM) at pH 7.5, 6.0, and 5.0. The samples were held at 37° C. for 30 min, spun down and the supernatant removed, and resuspended in 2.5 M NaCl solution (50 μL) and mixed. After 10 min the microspheres were spun down and the supernatant removed. The samples were added to red blood cells (500 μL, 100 mM) and the absorbance was measured at 541 nm.

For data set [1] the following is noted: 15 mM sodium acetate pH 5 buffer. How it is done:
The absorbance of the solution at 225 nm, which is the wavelength at which enol ethers absorb (Kresge, A. J.; Sagatys, D. S.; Chen, H. L. J. Am. Chem. Soc. 1977, 99, 7228) was measured over time.
The absorbance of the solution at 225 nm was measured as a function of time.

A further data set deals with cells. It counts as cell-based. Particulars: for Relative Light Units (luciferase expression): pCIluc DNA/poly-L-lysine complex plus 40 μg modified lipid, 48 h; for Relative Light Units relative to poly-L-lysine (no lipid): value in parentheses.
Data set [2] relates to 3T3 mouse embryonic fibroblast cells. Briefly: In vitro transfection with DNA-PLL-KL3 and dimethylmaleamic KL3, luciferase expression. Type of data set: cell-based. How it is done: To a complex of plasmid DNA pCIluc (10 μg/mL, 0.075 mM in phosphate, 2.6 μg/μL pCIluc; prepared according to Danko, I., Williams, P., Herweijer, H. Zhang, G., Latendresse, J. S., Bock, I., Wolff, J. A. Hum. Mol. Genetics 1997, 6, 1435.) and poly-L-lysine (40 μg/mL) in 0.5 mL of 5 mM HEPES pH 7.5 was added succinylated poly-L-lysine (34,000 MW, Aldrich Chemical), 2,3-dimethylmaleamic melittin and 2,3-dimethylmaleamic KL3. The DNA-poly-L-lysine-2,3-dimethylmaleamic peptide complexes were then added (200 μL) to wells containing 3T3 mouse embryonic fibroblast cells in 290 mM glucose and 5 mM HEPES buffer pH 7.5. After 1.5 h, the glucose media was replaced with Dubelco's modified Eagle Media and the cells were allowed to incubate for 48 h. The cells were then harvested and then assayed for luciferase expression as previously reported (Wolff, J. A., Malone, R. W., Williams, P., Chong, W., Acsadi, G., Jani, A. and Felgner, P. L. Direct gene transfer into mouse muscle in vivo. Science, 1465–1468, 1990.). A Lumat LB 9507 (EG&G Berthold, Bad-Wildbad, Germany) luminometer was used. The amount of transfection was reported in relative light units and is the average transfection for two separate wells of cells.

The nature of data set [3]: Hemolysis assay: melittin or KL3 blocked by anionic polymer or dimethylmaleic anhydride. The note with it: pH 7.5; 30 minutes, 37 C; read-out: Percent hemolysis. Type of data set: cell-based. How it is done:
The membrane-disruptive activity of the peptide melittin and subsequent blocking of activity by anionic polymers was measured using a red blood cell (RBC) hemolysis assay. RBCs were harvested by centrifuging whole blood for 4 min. They were washed three times with 100 mM dibasic sodium phosphate at the desired pH, and resuspended in the same buffer to yield the initial volume. They were diluted 10 times in the same buffer, and 200 uL of this suspension was used for each tube. This yields 10 ? 8 RBCs per tube. Each tube contained 800 uL of buffer, 200 uL of the RBC suspension, and the peptide with or without polymer. Each sample was then repeated to verify reproducibility. The tubes were incubated for 30 minutes in a 37 C water bath. They were spun for 5 min at full speed in the microcentifuge. Lysis was determined by measuring the absorbance of the supernatant at 541 nm, reflecting the amount of hemoglobin that had been released into the supernatant. Percent hemolysis was calculated assuming 100% lysis to be measured by the hemoglobin released by the red blood cells in water; controls of RBCs in buffer with no peptide were also run.

A short description of data set [4]: Kinetics of conversion of dimethylmaleamic modified amines to amines at pH 5 (trinitrobenzenesulfonate). It counts as physicochemical. As for the experimental part:
Dimethyl maleamic modified poly-L-lysine (10 mg/mL) was incubated in 10 mM sodium acetate buffer pH 5. At various times, aliquots (10 μg) were removed and added to 0.5 mL of 100 mM borax solution containing 0.4 mM trinitrobenzenesulfonate. A half an hour later, the absorbance of the solution at 420 nm was measured. To determine the concentration of amines at each time point, the extinction coefficient was determine for the product of trinitrobenzenesulfonate and poly-L-lysine. Using this extinction coefficient we were able to calculate the amount of amines and maleamic groups at each time point. A plot of ln (At/A0) as a function of time was a straight line whose slope is the negative of the rate constant for the conversion of maleamic acid to amine and anhydride, where At is the concentration of maleamic acid at a time t and A0 is the initial concentration of maleamic acid. For two separate experiments we calculated rate constants of […] which correspond to half lives of roughly 10 and 4 minutes respectively.
Dimethyl maleamic modified KL3 (0.1 mg/mL) was incubated in 40 mM sodium acetate buffer pH 5 and 1 mM cetyltrimetylammonium bromide. At various times, aliquots (10 μg) were removed and added to 0.05 mL of 1 M borax solution containing 4 mM trinitrobenzenesulfonate. A half an hour later, the absorbance of the solution at 420 nm was measured. […]

In the next data set the test system is HELA cells. Briefly: Endosome disruption assay (FITC-dextran, propidium iodide). It counts as cell-based. Particulars: 50 μg. How it is done:
HeLa cells were plated in 6-well tissue culture dishes containing microscope slide coverslips and grown in Delbecco's Modified Eagle's Medium (DMEM)+10% fetal calf serum+penn/strep for 24–48 hours until 30–60% confluent. […] After 25 min, media containing FITC-dextran±melittin was removed, the cells were washed twice with 1 ml 37° C. DMEM lacking FITC-dextran and melittin, and cells were incubated for an additional 35 min at 37° C. in 1 ml fresh DMEM. In order to assess possible cell lysis caused by melittin, propidium iodide was added for the final 5 min of incubation. […] However, if the plasma membrane has been damaged, propidium iodide enters the cell where it will brightly stain the nucleus. To process slides for analysis, cells were washed 3 times with cold phosphate buffered saline (PBS), fixed in PBS+4% formaldehyde for 20–30 min at 4° C., and washed again 3 times with cold PBS. Excess liquid was drained from coverslips which were then mounted onto glass slides. Fluorescence was then analyzed on a Zeiss LSM510 confocal microscope. FITC was excited by a 488 nm argon laser and fluorescence emission was detected by a long pass 505 nm filter. […] For cells incubated with unmodified melittin near 100% cell death was observed as determined by propidium iodide staining of nuclei and loss of cells from the sample.

Ends that are not written are not given here.

We go through 7 compounds from US7208314B2, “Compositions and methods for drug delivery using pH sensitive molecules” (priority 2002, dated 2007).

In the case of “Melittin Conjugated to Microspheres: melittin attached to carboxylic acid modified microspheres via Di-(2-methyl-4-hydroxymethyl-1,3-dioxolane)-1,4-benzene ketal”, the “A541 (red blood cell lysis)” value in the data set with red blood cells (30 min pH 5.0, 37° C.) worked out at 0.659; in the data set with red blood cells (30 min pH 5.5, 37° C.) it was 0.609; with red blood cells (30 min pH 6.0, 37° C.), 0.326; in the data set with red blood cells (30 min pH 7.5, 37° C.), 0.026; in the data set with red blood cells (60 min pH 5.0, 37° C.) it was 0.730; in the data set on red blood cells (60 min pH 5.5, 37° C.) it was 0.526. Further, the “A541 (red blood cell lysis)” value stood at 0.212 with red blood cells (60 min pH 6.0, 37° C.); 0.027 in the data set on red blood cells (60 min pH 7.5, 37° C.); 0.892 in the data set on red blood cells (90 min pH 5.0, 37° C.); 0.640 in the data set with red blood cells (90 min pH 5.5, 37° C.); 0.390 in the data set with red blood cells (90 min pH 6.0, 37° C.); 0.036 in the data set on red blood cells (90 min pH 7.5, 37° C.). Further, the “A541 (red blood cell lysis)” value in the data set on red blood cells (16 hrs pH 5.0, 37° C.) is reported as 1.163; in the data set with red blood cells (16 hrs pH 5.5, 37° C.), 0.796; in the data set on red blood cells (16 hrs pH 6.0, 37° C.), 0.354; with red blood cells (16 hrs pH 7.5, 37° C.) it was 0.065; with red blood cells (second experiment, 30 min pH 5.0 supernatant) it was 0.685; with red blood cells (second experiment, 30 min pH 6.0 supernatant), 0.213. Besides, the “A541 (red blood cell lysis)” value with red blood cells (second experiment, 30 min pH 7.5 supernatant) turned out to be 0.053; in the data set on red blood cells (second experiment, pH 5.0, 2.5 M NaCl wash), 0.101; in the data set on red blood cells (second experiment, pH 6.0, 2.5 M NaCl wash) it was 0.162; with red blood cells (second experiment, pH 7.5, 2.5 M NaCl wash), 0.087. The “time of rapid release of modified peptide” value with red blood cells (all acidic pH levels tested) was below 30 min. In addition, the “release of modified peptide from the microsphere” value in the data set with red blood cells (pH 7.5) is recorded as “not released”.
Turning to “glycolic acid ethoxylate(4 units) 4-tert-buty-1,4-cyclohexadiene ether”, the “rate constant of enol ether hydrolysis” value in data set [1] stood at 0.0159 min⁻¹.
`CCCCCCCC/C=C\CCCCCCCC(=O)OCC(COC(=O)/C(C)=C(/C)C(=O)O)OC(=O)CCCCCCC/C=C\CCCCCCCC` (centres unmarked) [2,3-dimethylmaleamic-modified DOG]: in the data set on cells, the “Relative Light Units (luciferase expression)” value is given as 193624 Relative Light Units and the “Relative Light Units relative to poly-L-lysine (no lipid)” value was 32.
Consider KLLKLLLKLWLKLLKLLLKLL [KL3], for which the “Relative Light Units (luciferase expression)” value in data set [2] (pCIluc DNA/poly-L-lysine complex plus named additive, 48 h, average of two wells) is reported as 261 Relative Light Units. Besides, the “Relative Light Units relative to Succinylated poly-L-lysine” value in data set [2] (value in parentheses) worked out at 0.04. Also, the hemolysis in data set [3] amounted to 86%.
As for `C/C(C(N)=O)=C(\CCC(=O)O)C(=O)O` [2-propionic-3-methylmaleamic acid], in data set [4], the “rate of maleamic acid cleavage compared” value was “the same as that for 2,3-dimethylmaleamic acids”.
For the compound `CC[C@H](C)[C@H](NC(=O)CN)C(=O)NCC(=O)N[C@@H](C)C(=O)N[C@H](C(=O)N[C@@H](CC(C)C)C(=O)N[C@@H](CCCCN)C(=O)N[C@H](C(=O)N[C@@H](CC(C)C)C(=O)N[C@H](C(=O)N[C@H](C(=O)NCC(=O)N[C@@H](CC(C)C)C(=O)N1CCC[C@H]1C(=O)N[C@@H](C)C(=O)N[C@@H](CC(C)C)C(=O)N[C@H](C(=O)N[C@@H](CO)C(=O)N[C@@H](Cc1c[nH]c2ccccc12)C(=O)N[C@H](C(=O)N[C@@H](CCCCN)C(=O)N[C@@H](CCCNC(=N)N)C(=O)N[C@@H](CCCCN)C(=O)N[C@@H](CCCNC(=N)N)C(=O)N[C@@H](CCC(N)=O)C(=O)N[C@@H](CCC(N)=O)C(N)=O)[C@@H](C)CC)[C@@H](C)CC)[C@@H](C)O)[C@@H](C)O)C(C)C)C(C)C` [Melittin, reference compound], in the data set on red blood cells (control, 100% lysis with melittin alone), the “A541 (red blood cell lysis)” value was determined as 1.881. Also, in the data set on HELA cells, the “cell death (propidium iodide staining of nuclei and loss of cells)” value is recorded as around 100%.
Regarding `CCCCCCCC/C=C\CCCCCCCC(=O)OC[C@H](COP(=O)(O)OCCNC(=O)/C(C)=C(/C)C(=O)O)OC(=O)CCCCCCC/C=C\CCCCCCCC` [2,3-dimethylmaleamic-modified DOPE], in the data set with cells, the “Relative Light Units (luciferase expression)” value was 243359 Relative Light Units and the “Relative Light Units relative to poly-L-lysine (no lipid)” value turned out to be 40.
